According to the NIST ThermoML archive (doi:10.1016/j.tca.2017.06.023):
± gives the expanded uncertainty stated by the source.

How the values were obtained:
[1] = refractive index (Na D-line) (dimensionless); xn = mol fraction of the nth substance listed; settings: 100 kPa, Liquid, Standard Abbe refractometry
[2] = xn = mol fraction of the nth substance listed; settings: 100 kPa, Liquid; for viscosity: Capillary tube (Ostwald / Ubbelohde) method; for speed of sound: Frequency=3 MHz, Sing-around technique in a fixed-path interferometer; for mass density: Vibrating tube method

CC(=O)N(C)C [N,N-dimethylethanamide] + CC(C)O
Settings | mass density, [2] [kg/m3] | refractive index, [1] | speed of sound, [2] [m/s] | viscosity, [2] [mPa·s]
283.15 K, x1 = 0.0551 | 803.7 ± 0.24 | 1.38572 ± 0.00032 | 1214.1 ± 1.2 | 2.752 ± 0.057
283.15 K, x1 = 0.1091 | 813.5 ± 0.24 | 1.38973 ± 0.00032 | 1234.9 ± 1.2 | 2.354 ± 0.049
283.15 K, x1 = 0.2113 | 831.42 ± 0.23 | 1.39698 ± 0.00032 | 1271.8 ± 1.2 | 1.896 ± 0.039
283.15 K, x1 = 0.3066 | 847.5 ± 0.23 | 1.40342 ± 0.00032 | 1303.6 ± 1.2 | 1.643 ± 0.034
283.15 K, x1 = 0.4084 | 864.09 ± 0.22 | 1.40997 ± 0.00032 | 1336.4 ± 1.2 | 1.476 ± 0.031
283.15 K, x1 = 0.5049 | 879.33 ± 0.22 | 1.4159 ± 0.00032 | 1366.7 ± 1.2 | 1.392 ± 0.029
283.15 K, x1 = 0.6056 | 894.73 ± 0.22 | 1.42182 ± 0.00032 | 1398.1 ± 1.2 | 1.305 ± 0.027
283.15 K, x1 = 0.7028 | 909.13 ± 0.22 | 1.42729 ± 0.00032 | 1427.9 ± 1.2 | 1.272 ± 0.026
283.15 K, x1 = 0.8024 | 923.39 ± 0.21 | 1.43267 ± 0.00031 | 1458.5 ± 1.2 | 1.246 ± 0.026
283.15 K, x1 = 0.8956 | 936.27 ± 0.21 | 1.43751 ± 0.00031 | 1486.3 ± 1.2 | 1.213 ± 0.025
283.15 K, x1 = 0.9464 | 943.08 ± 0.21 | 1.44007 ± 0.00031 | 1501.5 ± 1.2 | 1.205 ± 0.025
283.15 K, x1 = 1 | 950.13 ± 0.21 | 1.44273 ± 0.00031 | 1516.8 ± 1.2 | 1.168 ± 0.024
298.15 K, x1 = 0.0551 | 791.24 ± 0.24 | 1.37924 ± 0.00032 | 1160.6 ± 1.2 | 1.793 ± 0.037
298.15 K, x1 = 0.1091 | 800.93 ± 0.24 | 1.38322 ± 0.00032 | 1180.6 ± 1.2 | 1.598 ± 0.033
298.15 K, x1 = 0.2113 | 818.64 ± 0.23 | 1.39042 ± 0.00032 | 1215.9 ± 1.2 | 1.355 ± 0.028
298.15 K, x1 = 0.3066 | 834.52 ± 0.23 | 1.3968 ± 0.00032 | 1247.4 ± 1.2 | 1.214 ± 0.025
298.15 K, x1 = 0.4084 | 850.94 ± 0.23 | 1.40331 ± 0.00032 | 1279.7 ± 1.2 | 1.117 ± 0.023
298.15 K, x1 = 0.5049 | 866.02 ± 0.22 | 1.40919 ± 0.00032 | 1309.3 ± 1.2 | 1.057 ± 0.022
298.15 K, x1 = 0.6056 | 881.3 ± 0.22 | 1.41506 ± 0.00032 | 1338.8 ± 1.2 | 1.017 ± 0.021
298.15 K, x1 = 0.7028 | 895.59 ± 0.22 | 1.42049 ± 0.00032 | 1369.3 ± 1.2 | 0.993 ± 0.021
298.15 K, x1 = 0.8024 | 909.75 ± 0.21 | 1.42581 ± 0.00031 | 1399.3 ± 1.2 | 0.977 ± 0.02
298.15 K, x1 = 0.8956 | 922.53 ± 0.21 | 1.43061 ± 0.00031 | 1426.5 ± 1.2 | 0.956 ± 0.02
298.15 K, x1 = 0.9464 | 929.3 ± 0.21 | 1.43317 ± 0.00031 | 1441.3 ± 1.2 | 0.949 ± 0.02
298.15 K, x1 = 1 | 936.29 ± 0.21 | 1.43579 ± 0.00031 | 1453.7 ± 1.2 | 0.93 ± 0.019
313.15 K, x1 = 0.0551 | 778.1 ± 0.24 | 1.37249 ± 0.00032 | 1107.6 ± 1.2 | 1.223 ± 0.026
313.15 K, x1 = 0.1091 | 787.72 ± 0.24 | 1.37646 ± 0.00032 | 1127.3 ± 1.2 | 1.129 ± 0.024
313.15 K, x1 = 0.2113 | 805.29 ± 0.24 | 1.38365 ± 0.00032 | 1162.2 ± 1.2 | 1.008 ± 0.021
313.15 K, x1 = 0.3066 | 821.08 ± 0.23 | 1.39004 ± 0.00032 | 1193.5 ± 1.2 | 0.933 ± 0.02
313.15 K, x1 = 0.4084 | 837.39 ± 0.23 | 1.39653 ± 0.00032 | 1225.2 ± 1.2 | 0.879 ± 0.018
313.15 K, x1 = 0.5049 | 852.41 ± 0.23 | 1.40242 ± 0.00032 | 1254.2 ± 1.2 | 0.849 ± 0.018
313.15 K, x1 = 0.6056 | 867.62 ± 0.22 | 1.40827 ± 0.00032 | 1282.9 ± 1.2 | 0.828 ± 0.017
313.15 K, x1 = 0.7028 | 881.85 ± 0.22 | 1.4137 ± 0.00032 | 1313.2 ± 1.2 | 0.809 ± 0.017
313.15 K, x1 = 0.8024 | 895.96 ± 0.22 | 1.41903 ± 0.00031 | 1342.1 ± 1.2 | 0.795 ± 0.017
313.15 K, x1 = 0.8956 | 908.71 ± 0.21 | 1.42383 ± 0.00031 | 1368.5 ± 1.2 | 0.779 ± 0.016
313.15 K, x1 = 0.9464 | 915.46 ± 0.21 | 1.42638 ± 0.00031 | 1382.5 ± 1.2 | 0.772 ± 0.016
313.15 K, x1 = 1 | 922.43 ± 0.21 | 1.42901 ± 0.00031 | 1393.3 ± 1.2 | 0.764 ± 0.016

CC(=O)N(C)C [N,N-dimethylethanamide] + CCC(C)O
Settings | mass density, [2] [kg/m3] | refractive index, [1] | speed of sound, [2] [m/s] | viscosity, [2] [mPa·s]
283.15 K, x1 = 0.062 | 823.15 ± 0.24 | 1.40382 ± 0.00032 | 1280.8 ± 1.3 | 4.37 ± 0.091
283.15 K, x1 = 0.0926 | 827.08 ± 0.23 | 1.40505 ± 0.00032 | 1288 ± 1.3 | 3.888 ± 0.081
283.15 K, x1 = 0.2101 | 842.13 ± 0.23 | 1.4098 ± 0.00032 | 1314.5 ± 1.2 | 2.795 ± 0.058
283.15 K, x1 = 0.3084 | 854.75 ± 0.23 | 1.41377 ± 0.00032 | 1337 ± 1.2 | 2.363 ± 0.049
283.15 K, x1 = 0.4084 | 867.81 ± 0.22 | 1.41785 ± 0.00032 | 1360.1 ± 1.2 | 2.043 ± 0.042
283.15 K, x1 = 0.5009 | 880.22 ± 0.22 | 1.42168 ± 0.00032 | 1382.3 ± 1.2 | 1.833 ± 0.038
283.15 K, x1 = 0.6002 | 893.87 ± 0.22 | 1.42583 ± 0.00032 | 1407.2 ± 1.2 | 1.662 ± 0.035
283.15 K, x1 = 0.7001 | 907.96 ± 0.22 | 1.43002 ± 0.00032 | 1433 ± 1.2 | 1.518 ± 0.032
283.15 K, x1 = 0.8035 | 922.69 ± 0.21 | 1.43437 ± 0.00031 | 1461.3 ± 1.2 | 1.418 ± 0.029
283.15 K, x1 = 0.9004 | 936.39 ± 0.21 | 1.43847 ± 0.00031 | 1488.8 ± 1.2 | 1.318 ± 0.027
283.15 K, x1 = 0.9572 | 944.31 ± 0.21 | 1.44089 ± 0.00031 | 1505 ± 1.2 | 1.258 ± 0.026
283.15 K, x1 = 1 | 950.13 ± 0.21 | 1.44273 ± 0.00031 | 1516.8 ± 1.2 | 1.168 ± 0.024
298.15 K, x1 = 0.062 | 810.77 ± 0.24 | 1.39766 ± 0.00032 | 1226.5 ± 1.2 | 2.545 ± 0.053
298.15 K, x1 = 0.0926 | 814.69 ± 0.24 | 1.39889 ± 0.00032 | 1233.5 ± 1.2 | 2.345 ± 0.049
298.15 K, x1 = 0.2101 | 829.59 ± 0.23 | 1.40356 ± 0.00032 | 1259.8 ± 1.2 | 1.839 ± 0.038
298.15 K, x1 = 0.3084 | 842.09 ± 0.23 | 1.40746 ± 0.00032 | 1281.4 ± 1.2 | 1.593 ± 0.033
298.15 K, x1 = 0.4084 | 855.06 ± 0.23 | 1.41148 ± 0.00032 | 1303.8 ± 1.2 | 1.427 ± 0.03
298.15 K, x1 = 0.5009 | 867.31 ± 0.22 | 1.41524 ± 0.00032 | 1324.9 ± 1.2 | 1.316 ± 0.027
298.15 K, x1 = 0.6002 | 880.82 ± 0.22 | 1.41929 ± 0.00032 | 1349 ± 1.2 | 1.233 ± 0.026
298.15 K, x1 = 0.7001 | 894.7 ± 0.22 | 1.42339 ± 0.00032 | 1374.8 ± 1.2 | 1.151 ± 0.024
298.15 K, x1 = 0.8035 | 909.23 ± 0.21 | 1.42765 ± 0.00031 | 1402.4 ± 1.2 | 1.066 ± 0.022
298.15 K, x1 = 0.9004 | 922.74 ± 0.21 | 1.43165 ± 0.00031 | 1428.8 ± 1.2 | 1.02 ± 0.021
298.15 K, x1 = 0.9572 | 930.54 ± 0.21 | 1.43402 ± 0.00031 | 1443.3 ± 1.2 | 0.967 ± 0.02
298.15 K, x1 = 1 | 936.29 ± 0.21 | 1.43579 ± 0.00031 | 1453.7 ± 1.2 | 0.93 ± 0.019
313.15 K, x1 = 0.062 | 797.87 ± 0.24 | 1.39127 ± 0.00032 | 1172.2 ± 1.2 | 1.587 ± 0.033
313.15 K, x1 = 0.0926 | 801.76 ± 0.24 | 1.39248 ± 0.00032 | 1179.1 ± 1.2 | 1.501 ± 0.031
313.15 K, x1 = 0.2101 | 816.61 ± 0.23 | 1.39714 ± 0.00032 | 1205 ± 1.2 | 1.274 ± 0.027
313.15 K, x1 = 0.3084 | 829.07 ± 0.23 | 1.40103 ± 0.00032 | 1226.2 ± 1.2 | 1.146 ± 0.024
313.15 K, x1 = 0.4084 | 841.93 ± 0.23 | 1.40501 ± 0.00032 | 1247.8 ± 1.2 | 1.048 ± 0.022
313.15 K, x1 = 0.5009 | 854.12 ± 0.22 | 1.40873 ± 0.00032 | 1268.8 ± 1.2 | 0.979 ± 0.02
313.15 K, x1 = 0.6002 | 867.53 ± 0.22 | 1.41274 ± 0.00032 | 1292.5 ± 1.2 | 0.927 ± 0.019
313.15 K, x1 = 0.7001 | 881.27 ± 0.22 | 1.4168 ± 0.00032 | 1317.7 ± 1.2 | 0.888 ± 0.019
313.15 K, x1 = 0.8035 | 895.63 ± 0.22 | 1.42098 ± 0.00031 | 1345.2 ± 1.2 | 0.857 ± 0.018
313.15 K, x1 = 0.9004 | 909.02 ± 0.21 | 1.42492 ± 0.00031 | 1370.2 ± 1.2 | 0.819 ± 0.017
313.15 K, x1 = 0.9572 | 916.72 ± 0.21 | 1.42725 ± 0.00031 | 1384 ± 1.2 | 0.791 ± 0.017
313.15 K, x1 = 1 | 922.43 ± 0.21 | 1.42901 ± 0.00031 | 1393.3 ± 1.2 | 0.764 ± 0.016
